Test results from patent publication US12478605B2, “Biochanin a derivatives for treatment of BEST1-related retinopathies” (Universität Regensburg, priority 2020, dated 2025).
Where a name gives a salt, the structure may show the parent alone.

molecular target: T1, mutant BEST1 R218C (Homo sapiens, UniProt O76090, R218C); experiment: YFP-halide transport assay (I- influx), MDCKII cells expressing mutant BEST1-R218C; type: cell-based; conditions: MDCKII cells; cell line not stated; FIG. 4D
T1 construct: expressed in transfected cells
T1 sequence (O76090 1-585 R218C): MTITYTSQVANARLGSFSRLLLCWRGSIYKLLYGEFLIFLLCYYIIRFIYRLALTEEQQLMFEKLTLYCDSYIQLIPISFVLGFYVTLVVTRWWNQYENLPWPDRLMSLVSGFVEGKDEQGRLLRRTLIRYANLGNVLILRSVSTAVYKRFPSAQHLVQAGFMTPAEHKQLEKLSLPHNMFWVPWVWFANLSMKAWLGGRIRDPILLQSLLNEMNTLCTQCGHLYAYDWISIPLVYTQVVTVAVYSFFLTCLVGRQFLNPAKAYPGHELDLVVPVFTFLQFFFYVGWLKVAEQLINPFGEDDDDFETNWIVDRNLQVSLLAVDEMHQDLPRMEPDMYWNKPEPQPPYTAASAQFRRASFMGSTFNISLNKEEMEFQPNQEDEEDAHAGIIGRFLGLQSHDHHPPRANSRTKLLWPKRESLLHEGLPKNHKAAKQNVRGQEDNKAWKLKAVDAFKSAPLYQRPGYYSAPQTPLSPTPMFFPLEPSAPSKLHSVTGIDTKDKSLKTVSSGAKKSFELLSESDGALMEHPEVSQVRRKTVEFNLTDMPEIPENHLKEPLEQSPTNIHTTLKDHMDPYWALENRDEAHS
Description: Human hiPSC-RPE or MDCKII cells were transduced via lentivirus particles which were produced by co-transfecting HEK293T cells with the yellow fluorescence protein (YFPH148Q/I152L)-pLJM1 and helper plasmids pMD2.G and psPAX2 using the Ca^2+ phospate transfection method. After six weeks of cultivation in 96-well black microtiter plates, cells were incubated with 100 mM Cl^− containing solution and basal YFP fluorescence was measured in a Tecan microplate reader. Subsequently Cl^− was replaced with equimolar I^− and decrease of YFP fluorescence intensity was monitored for another 2 min in 10 sec intervals.
To analyze BEST1-mediated anion transport in the cell lines generated in the previous examples, a well-established halide transport assay (Galietta et al., 2001) was adapted. […] Addition of I— leads to specific YFP quenching over time and changes of fluorescence intensities can be monitored on a plate reader. MDCKII cells were incubated with 100 mM Cl— containing solution and steady state YFP fluorescence signal intensities were measured after 6 minutes. Subsequently, Cl— was replaced by equimolar I— and anion permeability was monitored by decreasing YFP intensities as a result of BEST1-mediated I— influx in a time course up to 2 minutes (FIG. 2B). For several independent BEST1 wildtype cell lines a fast kinetic of decreasing fluorescence intensities to ˜30 to 40% was observed while the untransfected control cell lines remained flat (FIGS. 2C and D).
Example 8—Evaluation of BioA(C2H3O2)2 activity in MDCKII cells MDCKII cells co-expressing YFP and BEST1 wildtype or mutant p.(R218C) were seeded on black 96-well plates and cultivated for 6 days to achieve polarity, a requirement for correct basolateral localization of BEST1 in epithelial cells. Compounds were tested separately at 10 μM concentration in a 96-well format. After compound addition for 24 h, cells were subjected to an inwardly directed I— gradient to drive I— influx and produce decreasing (quenched) fluorescence signals. […]

Structure (SMILES)	effect on BEST1-mediated I- influx
COc1ccc(-c2coc3cc(O)cc(O)c3c2=O)cc1 [Biochanin A]	no effect

molecular target: T1, mutant BEST1 R218C; experiment: YFP-based I- efflux assay in MDCKII cells co-expressing YFP and mutant BEST1 R218C; type: cell-based; conditions: 5 μM, compound addition for 24 h, FIGS. 6-8
Description: MDCKII cells co-expressing yellow fluorescence protein (YFP) and mutant BEST1 R218C were seeded on black 96-well plates and cultivated for 6 days to achieve polarity, a crucial requirement for correct basolateral localization of BEST1 in epithelial cells. Compounds were tested at 5 μM concentration in a 96-well format. After compound addition for 24 h, cells were subjected to an outwardly directed iodid (I^−)-gradient to drive BEST1-mediated I^− efflux and produce increasing fluorescence signals. Each assay consisted of recording of YFP quenching after I^− pre-incubation for 6 min (=100% value), followed by 7 min of recording of increasing fluorescence after addition of the chloride (Cr) containing solution. Changes of fluorescence intensities were monitored on a plate reader. The effect on the kinetics of I— efflux was tested for Biochanin A (FIG. 6A), Trimethoxyisoflavone (FIG. 6B), 5,4-dimethoxy hydroxyisoflavone (FIG. 6C), Biochanin A-7-methyl ether (FIG. 6D), Biochanin A-7-acetate (FIG. 6E), Biochanin A diacetate (FIG. 6F), Biochanin A-7-pentanoate (FIG. 6G), Biochanin A dipentanoate (FIG. 6H), Biochanin A-7-pivalate (FIG. 7A), Biochanin A-dipavalate (FIG. 7B), Biochanin A-7-acrylate (FIG. 7C), Biochanin A diacrylate (FIG. 7D), Biochanin A-7-methyl fumarate (FIG. 7E), Biochanin A-di(methyl fumarate) (FIG. 7F), Biochanin A-7-butylcarbamate (FIG. 7G), Biochanin A di(butylcarbamate) (FIG. 7H), Biochanin A-7-phosphate disodium salt (FIG. 8A), Biochanin A-7-isopropylate (FIG. 8B), 7-pivaloxymethyl-Biochanin A (FIG. 8C), Biochanin A diisopropylate (FIG. 8D), Biochanin A-7-isopropyl carbonate (FIG. 8E), Biochanin A diisopropyl carbonate (FIG. 8F), Isopropyloxycarbonylmethoxy-Biochanin A (FIG. 8G).

Structure (SMILES)	anion transport activity (kinetics of I- efflux) in comparison to untreated cells
COc1ccc(-c2coc3cc(OCOC(=O)OC(C)C)cc(O)c3c2=O)cc1	noticeable increased
COc1ccc(-c2coc3cc(O)cc(OC)c3c2=O)cc1 [5,4-dimethoxy-7-hydroxyisoflavone]	no or only minimal effect
COc1ccc(-c2coc3cc(OCOC(=O)C(C)(C)C)cc(O)c3c2=O)cc1 [7-pivaloxymethyl-Biochanin A, 7-Pivaloxymethyl-Biochanin A]	noticeable increased
CCCCNC(=O)Oc1cc(OC(=O)NCCCC)c2c(=O)c(-c3ccc(OC)cc3)coc2c1 [Biochanin A di(butylcarbamate)]	strongly increased
C=CC(=O)Oc1cc(OC(=O)C=C)c2c(=O)c(-c3ccc(OC)cc3)coc2c1 [Biochanin A diacrylate]	strongly increased
COc1ccc(-c2coc3cc(OC(=O)OC(C)C)cc(OC(=O)OC(C)C)c3c2=O)cc1 [Biochanin A diisopropyl carbonate]	strongly increased
COc1ccc(-c2coc3cc(OC(=O)C(C)C)cc(OC(=O)C(C)C)c3c2=O)cc1 [Biochanin A diisopropylate]	strongly increased
CCCCC(=O)Oc1cc(OC(=O)CCCC)c2c(=O)c(-c3ccc(OC)cc3)coc2c1 [Biochanin A dipentanoate]	strongly increased
COc1ccc(-c2coc3cc(OC(C)=O)cc(O)c3c2=O)cc1 [Biochanin A-7-acetate]	no or only minimal effect
C=CC(=O)Oc1cc(O)c2c(=O)c(-c3ccc(OC)cc3)coc2c1 [Biochanin A-7-acrylate]	noticeable increased
CCCCNC(=O)Oc1cc(O)c2c(=O)c(-c3ccc(OC)cc3)coc2c1 [Biochanin A-7-butylcarbamate]	no or only minimal effect
COc1ccc(-c2coc3cc(OC(=O)OC(C)C)cc(O)c3c2=O)cc1 [Biochanin A-7-isopropyl carbonate]	strongly increased
COc1ccc(-c2coc3cc(OC(=O)C(C)C)cc(O)c3c2=O)cc1 [Biochanin A-7-isopropylate]	no or only minimal effect
COc1ccc(-c2coc3cc(OC)cc(O)c3c2=O)cc1 [Biochanin A-7-methyl ether]	no or only minimal effect
COC(=O)/C=C/C(=O)Oc1cc(O)c2c(=O)c(-c3ccc(OC)cc3)coc2c1 [Biochanin A-7-methyl fumarate]	no or only minimal effect
CCCCC(=O)Oc1cc(O)c2c(=O)c(-c3ccc(OC)cc3)coc2c1 [Biochanin A-7-pentanoate]	no or only minimal effect
COc1ccc(-c2coc3cc(OP(=O)([O-])[O-])cc(O)c3c2=O)cc1.[Na+].[Na+] [Biochanin A-7-phosphate disodium salt]	noticeable increased
COc1ccc(-c2coc3cc(OC(=O)C(C)(C)C)cc(O)c3c2=O)cc1 [Biochanin A-7-pivalate]	no or only minimal effect
COC(=O)/C=C/C(=O)Oc1cc(OC(=O)/C=C/C(=O)OC)c2c(=O)c(-c3ccc(OC)cc3)coc2c1 [Biochanin A-di(methyl fumarate), Biochanin A di(methyl fumarate)]	strongly increased
COc1ccc(-c2coc3cc(OC(=O)C(C)(C)C)cc(OC(=O)C(C)(C)C)c3c2=O)cc1 [Biochanin A-dipavalate, Biochanin A dipivalate]	noticeable increased
COc1ccc(-c2coc3cc(O)cc(O)c3c2=O)cc1 [Biochanin A]	no or only minimal effect
